From patent publication US11891365B2, “3-alkyl-4-amido-bicyclic [4,5,0] hydroxamic acids as HDAC inhibitors” (Valo Health, Inc., priority 2015, dated 2024)

Target: T1, Full length human recombinant HDAC6 protein (Homo sapiens, UniProt Q9UBN7)
T1 sequence (Q9UBN7 1-1215): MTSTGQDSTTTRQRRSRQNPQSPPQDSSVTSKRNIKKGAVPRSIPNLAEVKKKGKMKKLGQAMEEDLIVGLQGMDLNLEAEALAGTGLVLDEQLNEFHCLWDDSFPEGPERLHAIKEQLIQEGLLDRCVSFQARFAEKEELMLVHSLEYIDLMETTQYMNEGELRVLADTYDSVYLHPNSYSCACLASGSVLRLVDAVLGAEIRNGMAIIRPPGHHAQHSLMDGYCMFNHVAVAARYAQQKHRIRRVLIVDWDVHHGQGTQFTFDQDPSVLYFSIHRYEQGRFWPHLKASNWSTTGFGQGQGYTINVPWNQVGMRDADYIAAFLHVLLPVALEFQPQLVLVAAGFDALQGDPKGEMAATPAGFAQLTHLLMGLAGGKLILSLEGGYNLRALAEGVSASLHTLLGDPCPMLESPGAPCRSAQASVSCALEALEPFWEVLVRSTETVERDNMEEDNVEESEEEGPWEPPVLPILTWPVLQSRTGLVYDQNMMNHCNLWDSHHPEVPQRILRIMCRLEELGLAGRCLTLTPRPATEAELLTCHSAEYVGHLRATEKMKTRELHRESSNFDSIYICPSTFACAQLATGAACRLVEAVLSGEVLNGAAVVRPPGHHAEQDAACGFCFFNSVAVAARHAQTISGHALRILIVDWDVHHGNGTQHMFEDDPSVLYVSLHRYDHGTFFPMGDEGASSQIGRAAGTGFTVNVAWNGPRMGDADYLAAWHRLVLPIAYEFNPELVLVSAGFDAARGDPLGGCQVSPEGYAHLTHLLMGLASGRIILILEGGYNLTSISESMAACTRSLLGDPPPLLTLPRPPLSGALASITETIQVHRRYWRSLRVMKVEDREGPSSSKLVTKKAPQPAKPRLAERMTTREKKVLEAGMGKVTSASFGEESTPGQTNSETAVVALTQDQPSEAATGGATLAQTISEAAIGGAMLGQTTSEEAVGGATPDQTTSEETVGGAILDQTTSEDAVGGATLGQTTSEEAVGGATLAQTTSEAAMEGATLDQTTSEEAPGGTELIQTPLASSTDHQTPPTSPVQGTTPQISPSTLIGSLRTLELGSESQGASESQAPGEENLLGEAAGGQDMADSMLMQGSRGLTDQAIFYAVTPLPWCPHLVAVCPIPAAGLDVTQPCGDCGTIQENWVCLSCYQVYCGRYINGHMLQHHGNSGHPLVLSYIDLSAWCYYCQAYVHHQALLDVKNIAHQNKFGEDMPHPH
Assay: In vitro histone deacetylase assay: enzymatic HDAC6 electrophoretic mobility shift assay
Format: biochemical
Conditions: 1 nM enzyme, 2 μM peptide substrate RHKK(Ac)-NH2, 25° C., 12 concentrations; read-out: Inhibitory Concentration (IC50) Values against HDAC6, Activity Range

IC50 [nM] | SMILES
≤ 100 | O=C(NO)c1ccc2c(c1)OCCN(C(=O)C1CCS(=O)(=O)CC1)C2 [4-(1,1-dioxidotetrahydro-2H-thiopyran-4-carbonyl)-N-hydroxy-2,3,4,5-tetrahydrobenzo[f][1,4]oxazepine-8-carboxamide]
≤ 100 | C[C@H]1COc2cc(C(=O)NO)ccc2CN1C(=O)[C@H]1CCCOC1 [(S)-N-hydroxy-3-methyl-4-((S)-tetrahydro-2H-pyran-3-carbonyl)-2,3,4,5-tetrahydrobenzo[f][1,4]oxazepine-8-carboxamide]
100 to 500 | O=C(NO)c1ccc2c(c1)OCCN(C(=O)c1ccc(C(F)(F)F)cc1)C2 [N-hydroxy-4-(4-(trifluoromethyl)benzoyl)-2,3,4,5-tetrahydrobenzo[f][1,4]oxazepine-8-carboxamide]
≤ 100 | O=C(NO)c1ccc2c(c1)OCCN(C(=O)C1CCCC1)C2 [4-(cyclopentanecarbonyl)-N-hydroxy-2,3,4,5-tetrahydrobenzo[f][1,4]oxazepine-8-carboxamide]
> 500 | O=C(NO)c1ccc2c(c1)OCCN(C(=O)C1CC13CCNC3)C2 (stereo not drawn) [N-hydroxy-4-(5-azaspiro[2.4]heptane-1-carbonyl)-2,3,4,5-tetrahydrobenzo[f][1,4]oxazepine-8-carboxamide]
100 to 500 | O=C(NO)c1ccc2c(c1)OCCN(C(=O)C1CC(F)(F)C1)C2 [4-(3,3-difluorocyclobutane-1-carbonyl)-N-hydroxy-2,3,4,5-tetrahydrobenzo[f][1,4]oxazepine-8-carboxamide]
≤ 100 | CC(C)[C@H]1COc2cc(C(=O)NO)ccc2CN1C(=O)C1(C)CCC1 [(S)-N-hydroxy-3-isopropyl-4-(1-methylcyclobutane-1-carbonyl)-2,3,4,5-tetrahydrobenzo[f][1,4]oxazepine-8-carboxamide]
100 to 500 | COc1cccc(C(=O)N2CCOc3cc(C(=O)NO)ccc3C2)c1 [N-hydroxy-4-(3-methoxybenzoyl)-2,3,4,5-tetrahydrobenzo[f][1,4]oxazepine-8-carboxamide]
≤ 100 | C[C@H]1c2ccc(C(=O)NO)cc2OCCN1C(=O)[C@@H]1CCOC1 [(S)-N-hydroxy-5-methyl-4-((R)-tetrahydrofuran-3-carbonyl)-2,3,4,5-tetrahydrobenzo[f][1,4]oxazepine-8-carboxamide]
≤ 100 | C[C@H]1COc2cc(C(=O)NO)ccc2CN1C(=O)C(C)(C)c1ccc(F)cc1 [(S)-4-(2-(4-fluorophenyl)-2-methylpropanoyl)-N-hydroxy-3-methyl-2,3,4,5-tetrahydrobenzo[f][1,4]oxazepine-8-carboxamide]
> 500 | COc1ccc(CC(=O)N2CC(=O)Nc3ccc(C(=O)NO)cc3C2)cc1 [N-hydroxy-4-(2-(4-methoxyphenyl)acetyl)-2-oxo-2,3,4,5-tetrahydro-1H-benzo[e][1,4]diazepine-7-carboxamide]
100 to 500 | O=C(NO)c1ccc2c(c1)O[C@@H]1C[C@H]2N(C(=O)C2CCOCC2)C1 [(2R,5R)-N-hydroxy-4-(tetrahydro-2H-pyran-4-carbonyl)-2,3,4,5-tetrahydro-2,5-methanobenzo[f][1,4]oxazepine-8-carboxamide]
> 500 | O=C(NO)c1ccc2c(c1)O[C@H]1C[C@@H]2N(C(=O)C2CCOCC2)C1 [(2S,5S)-N-hydroxy-4-(tetrahydro-2H-pyran-4-carbonyl)-2,3,4,5-tetrahydro-2,5-methanobenzo[f][1,4]oxazepine-8-carboxamide]
≤ 100 | C[C@H]1COc2cc(C(=O)NO)ccc2CN1C(=O)C1(C)COC1 [(S)-N-hydroxy-3-methyl-4-(3-methyloxetane-3-carbonyl)-2,3,4,5-tetrahydrobenzo[f][1,4]oxazepine-8-carboxamide]
≤ 100 | O=C(NO)c1ccc2c(c1)OCCN(C(=O)C1(c3ccccc3C(F)(F)F)CC1)C2 [N-hydroxy-4-(1-(2-(trifluoromethyl)phenyl)cyclopropane-1-carbonyl)-2,3,4,5-tetrahydrobenzo[f][1,4]oxazepine-8-carboxamide]
